From publication PMC8213057, “Targeting ALK2: An Open Science Approach to Developing Therapeutics for the Treatment of Diffuse Intrinsic Pontine Glioma” (Journal of Medicinal Chemistry, 2020)

Assays:
[1] = target: CLK3 (Homo sapiens, UniProt P49761); conditions: 1 μM; Run 1, Run 2
[2] = target: T1, SNRK (Homo sapiens, UniProt Q9NRH2); conditions: 1 μM; Run 1, Run 2
T1 sequence (Q9NRH2 1-765): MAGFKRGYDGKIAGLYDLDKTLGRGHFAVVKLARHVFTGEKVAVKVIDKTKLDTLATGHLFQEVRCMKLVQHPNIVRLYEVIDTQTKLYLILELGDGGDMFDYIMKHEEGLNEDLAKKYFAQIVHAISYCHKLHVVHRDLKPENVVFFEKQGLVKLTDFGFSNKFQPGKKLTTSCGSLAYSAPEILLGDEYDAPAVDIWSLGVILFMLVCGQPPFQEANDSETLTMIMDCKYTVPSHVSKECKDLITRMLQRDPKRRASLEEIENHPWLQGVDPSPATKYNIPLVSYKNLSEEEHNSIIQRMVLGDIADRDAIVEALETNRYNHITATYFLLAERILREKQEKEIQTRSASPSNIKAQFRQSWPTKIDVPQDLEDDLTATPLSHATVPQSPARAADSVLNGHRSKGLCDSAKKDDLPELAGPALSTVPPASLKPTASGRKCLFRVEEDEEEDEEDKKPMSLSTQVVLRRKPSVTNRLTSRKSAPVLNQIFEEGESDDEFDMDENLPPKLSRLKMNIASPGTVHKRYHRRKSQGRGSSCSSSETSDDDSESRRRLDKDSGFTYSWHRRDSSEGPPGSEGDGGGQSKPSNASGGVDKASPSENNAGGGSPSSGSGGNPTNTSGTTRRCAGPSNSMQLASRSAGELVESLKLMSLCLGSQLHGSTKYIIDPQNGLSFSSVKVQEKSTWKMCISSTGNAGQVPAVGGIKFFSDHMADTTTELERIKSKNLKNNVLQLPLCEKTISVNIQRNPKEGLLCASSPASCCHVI

[3] = target: LIMK2 (Homo sapiens, UniProt P53671); assay: biochemical; conditions: read-out: % enzyme activity, 1 μM; Run 1, Run 2
[4] = target: T2, GCK/MAP4K2 (Homo sapiens, UniProt Q12851); conditions: 1 μM; Run 1, Run 2
T2 sequence (Q12851 1-820): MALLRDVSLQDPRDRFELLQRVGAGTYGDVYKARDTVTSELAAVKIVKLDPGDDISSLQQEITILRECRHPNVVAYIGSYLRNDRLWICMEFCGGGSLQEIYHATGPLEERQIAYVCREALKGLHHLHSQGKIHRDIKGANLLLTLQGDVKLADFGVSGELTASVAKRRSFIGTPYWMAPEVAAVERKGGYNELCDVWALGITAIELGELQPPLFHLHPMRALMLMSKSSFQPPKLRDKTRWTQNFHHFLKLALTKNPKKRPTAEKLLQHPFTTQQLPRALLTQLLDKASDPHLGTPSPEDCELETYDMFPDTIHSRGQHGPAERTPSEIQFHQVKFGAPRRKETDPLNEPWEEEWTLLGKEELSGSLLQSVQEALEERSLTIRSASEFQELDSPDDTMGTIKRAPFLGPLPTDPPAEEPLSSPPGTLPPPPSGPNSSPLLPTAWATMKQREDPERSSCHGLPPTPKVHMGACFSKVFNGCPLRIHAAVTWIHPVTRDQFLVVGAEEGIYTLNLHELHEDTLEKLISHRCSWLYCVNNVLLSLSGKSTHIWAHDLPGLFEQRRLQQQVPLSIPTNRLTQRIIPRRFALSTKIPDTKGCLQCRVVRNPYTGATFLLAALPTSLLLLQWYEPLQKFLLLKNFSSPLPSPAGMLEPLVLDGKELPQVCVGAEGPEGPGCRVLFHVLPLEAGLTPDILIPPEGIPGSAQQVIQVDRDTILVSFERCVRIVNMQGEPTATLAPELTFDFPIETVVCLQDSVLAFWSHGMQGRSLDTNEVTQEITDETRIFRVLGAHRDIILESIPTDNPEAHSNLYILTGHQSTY

[5] = target: T3, YSK4/MAP3K19 (Homo sapiens, UniProt Q56UN5); assay: biochemical; conditions: read-out: % enzyme activity, 1 μM; Run 1, Run 2
T3 sequence (Q56UN5 1-1328): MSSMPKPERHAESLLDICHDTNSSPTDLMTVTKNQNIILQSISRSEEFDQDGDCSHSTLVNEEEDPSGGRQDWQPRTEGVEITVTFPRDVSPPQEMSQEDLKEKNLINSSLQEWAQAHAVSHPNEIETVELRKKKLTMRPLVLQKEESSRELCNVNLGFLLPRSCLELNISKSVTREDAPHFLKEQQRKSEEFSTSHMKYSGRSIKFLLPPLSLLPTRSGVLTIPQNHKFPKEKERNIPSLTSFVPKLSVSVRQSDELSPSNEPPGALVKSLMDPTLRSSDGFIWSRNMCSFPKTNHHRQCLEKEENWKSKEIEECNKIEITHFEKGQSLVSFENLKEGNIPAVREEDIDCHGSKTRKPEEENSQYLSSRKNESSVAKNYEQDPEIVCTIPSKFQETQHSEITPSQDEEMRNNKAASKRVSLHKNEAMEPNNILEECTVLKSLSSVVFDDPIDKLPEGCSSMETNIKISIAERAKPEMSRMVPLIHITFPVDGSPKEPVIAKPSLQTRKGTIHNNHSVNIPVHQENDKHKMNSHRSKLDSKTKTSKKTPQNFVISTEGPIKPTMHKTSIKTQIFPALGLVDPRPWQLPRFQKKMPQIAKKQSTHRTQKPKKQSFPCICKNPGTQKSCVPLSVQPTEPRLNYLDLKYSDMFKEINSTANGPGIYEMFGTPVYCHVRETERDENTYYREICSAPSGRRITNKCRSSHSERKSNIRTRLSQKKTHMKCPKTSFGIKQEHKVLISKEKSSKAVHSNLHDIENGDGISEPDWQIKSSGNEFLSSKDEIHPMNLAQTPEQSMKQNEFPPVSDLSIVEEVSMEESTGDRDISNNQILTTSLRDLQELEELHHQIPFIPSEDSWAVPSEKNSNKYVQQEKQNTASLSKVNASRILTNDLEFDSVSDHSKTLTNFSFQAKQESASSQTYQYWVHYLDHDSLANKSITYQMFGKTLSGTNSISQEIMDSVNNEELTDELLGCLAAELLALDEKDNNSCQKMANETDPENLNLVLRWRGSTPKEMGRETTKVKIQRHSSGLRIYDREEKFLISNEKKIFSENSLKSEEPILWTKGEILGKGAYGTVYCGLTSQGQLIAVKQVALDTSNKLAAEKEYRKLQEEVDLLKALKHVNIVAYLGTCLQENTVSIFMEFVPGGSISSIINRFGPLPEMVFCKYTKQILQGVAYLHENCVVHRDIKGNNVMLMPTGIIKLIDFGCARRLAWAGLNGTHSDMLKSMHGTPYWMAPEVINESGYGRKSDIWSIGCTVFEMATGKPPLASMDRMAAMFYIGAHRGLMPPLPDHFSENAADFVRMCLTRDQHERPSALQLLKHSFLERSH

Chain of LIMK2 (P53671 whole entry): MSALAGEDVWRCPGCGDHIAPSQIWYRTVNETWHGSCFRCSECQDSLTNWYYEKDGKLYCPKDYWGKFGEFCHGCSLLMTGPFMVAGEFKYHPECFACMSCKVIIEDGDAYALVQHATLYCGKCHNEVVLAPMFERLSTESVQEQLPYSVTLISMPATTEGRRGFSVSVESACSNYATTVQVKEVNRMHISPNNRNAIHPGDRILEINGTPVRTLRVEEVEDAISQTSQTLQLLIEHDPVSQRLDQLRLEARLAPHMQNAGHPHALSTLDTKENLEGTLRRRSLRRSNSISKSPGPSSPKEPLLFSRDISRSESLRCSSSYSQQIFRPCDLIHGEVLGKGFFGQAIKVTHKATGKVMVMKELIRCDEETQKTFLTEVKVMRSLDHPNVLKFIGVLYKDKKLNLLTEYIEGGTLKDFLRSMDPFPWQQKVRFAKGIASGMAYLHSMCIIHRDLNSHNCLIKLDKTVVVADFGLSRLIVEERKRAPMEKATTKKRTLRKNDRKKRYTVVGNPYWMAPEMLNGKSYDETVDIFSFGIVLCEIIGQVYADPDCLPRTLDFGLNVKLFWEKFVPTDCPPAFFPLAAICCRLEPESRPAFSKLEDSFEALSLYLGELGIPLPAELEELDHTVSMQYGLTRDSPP
Chain of CLK3 (P49761 whole entry): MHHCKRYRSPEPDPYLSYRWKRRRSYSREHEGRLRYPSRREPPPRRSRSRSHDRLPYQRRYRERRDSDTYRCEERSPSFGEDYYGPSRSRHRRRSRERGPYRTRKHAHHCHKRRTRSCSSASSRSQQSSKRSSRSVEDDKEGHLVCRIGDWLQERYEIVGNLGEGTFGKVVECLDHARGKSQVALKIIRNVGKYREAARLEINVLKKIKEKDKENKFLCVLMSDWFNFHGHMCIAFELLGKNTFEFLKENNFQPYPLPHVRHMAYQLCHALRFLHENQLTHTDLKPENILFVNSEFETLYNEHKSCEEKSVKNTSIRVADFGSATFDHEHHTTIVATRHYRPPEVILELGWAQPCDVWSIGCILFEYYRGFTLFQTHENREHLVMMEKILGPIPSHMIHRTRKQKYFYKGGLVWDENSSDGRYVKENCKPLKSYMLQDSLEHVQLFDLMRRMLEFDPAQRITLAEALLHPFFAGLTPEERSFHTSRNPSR

## COc1cc(-c2cncc(-c3ccc(N4CCN(C)CC4)cc3)c2C)cc(F)c1C(N)=O [Compound 26a, 2-Fluoro-6-methoxy-4-(4-methyl-5-(4-(4-methylpiperazin-1-yl)phenyl)pyridin-3-yl)benzamide]
[1]
  % enzyme activity: 99.59%
[2]
  % enzyme activity: 104.94%
[3]
  remaining activity at 1 µM: 102%
[4]
  % enzyme activity: 59.95%
[5]
  remaining activity at 1 µM: 98.2%

## COc1cc(-c2cncc(-c3ccc(N4C[C@@H](C)N(C)[C@@H](C)C4)cc3)c2C)cc(F)c1C(N)=O [Compound 26c, 2-Fluoro-6-methoxy-4-(4-methyl-5-(4-((3R,5S)-3,4,5-trimethylpiperazin-1-yl)phenyl)pyridin-3-yl)benzamide]
[1]
  % enzyme activity: 86.89%
[2]
  % enzyme activity: 97.75%
[3]
  remaining activity at 1 µM: 97.8%
[4]
  % enzyme activity: 74.91%
[5]
  remaining activity at 1 µM: 97%
